The numbers were not newly measured in US7671051B2, “Inhibitors of 11-β-hydroxy steroid dehydrogenase type 1” (Biovitrum AB, priority 2001, dated 2010), which cites them from elsewhere.

The subject of this data set is bone nodule formation.

`CC1(C)[C@@H](OC(=O)CCC(=O)O)CC[C@]2(C)[C@H]3C(=O)C=C4[C@@H]5C[C@@](C)(C(=O)O)CC[C@]5(C)CC[C@@]4(C)[C@]3(C)CC[C@@H]12` [carbenoxolone]: the “negative effect (of glucocorticoid) on bone nodule formation” value was “blocked”.
